Source: patent US20060287316A1, “METHOD FOR IMPROVING PHARMACOKINETICS OF PROTEASE INHIBITORS AND PROTEASE INHIBITOR PRECURSORS” (priority 2005, published 2006)
Values after ≈ are worked out from the molar mass of the structure shown. Where two headings read alike, the source gives them in different places. Each block holds one compound with its values, some of them ahead of it.

Tests used:
[1] = system: 63 HIV isolates with reduced susceptibility to all approved protease inhibitors; type: cell-based, HIV-1; conditions: for % FC < 2.5 / % FC < 10 / % FC > 50 / Mean FC / Median FC: 63 diverse, multi-PI-resistant strains; for Mean FC / Median FC: FC in IC50 vs NL-4.3
From the text: The cross-resistance profile of PL-100 against 63 HIV isolates with reduced susceptibility to all approved protease inhibitors (P is) including atazanavir was thus tested.
The panel of 63 viral strains was selected based on the following rationale: 1) High-level loss of susceptibility to specific P is; 2) High-level loss of susceptibility to multiple P is; 3) Good representation of the primary mutations. This panel consists of resistant viruses from highly PI-experienced patients with high-level PI resistance.
The genotype of these viruses encompasses a wide variety of mutational patterns. We particularly looked for the following primary PI mutations: D30N, L33F/I, M461/L, G48V, I50L/V, V82A/F/S/T, I84V and L90M as defined by the International AIDS Society (IAS)-USA.
The dark cells indicate a […], the grey cells indicate FC values of 2.5≦FC<10 and the white cells indicate a FC value of; 0≦FC<2.5. The results of cross-resistance profile are further illustrated in the graph of FIG. 1.
In the cross-resistance profiling studies against the 63 resistant strains mentioned herein, EC95 of PL-100 was determined against each strain. The median EC95 represents the concentration required to inhibit 95% of the viral replication of 50% diverse drug-resistant HIV-1 variants tested. Table 8 illustrates the percentage of resistant strains tested with protein-binding adjusted EC95s≦200 ng/ml. The resistant strains are grouped by the number of primary mutations they have.
The EC95 of PL-100 was determined against each of the 63 resistant strains indicated herein. Table 9 illustrates the percentage of resistant strains tested with protein-binding adjusted EC95s≦630 ng/ml. The resistant strains are grouped by the number of primary mutations they have.

[2] = Cytotoxicity in the same cell culture system; type: cell-based; conditions: human, MT4 cells
Experimental: Cytotoxicity of PL-100 and other P is was evaluated in the same cell culture system. The selectivity index (SI) is the ratio of cytotoxicity (CC50) to antiviral activity (EC50). The selective index is similar to the therapeutic index but relates to in vitro studies.

[3] = system: laboratory adapted HIV strain (NL4-3); experiment: microbe, parasite or virus in culture; conditions: for EC50: Human immunodeficiency virus 1, NL43, MT4, MT4 cells infected with NL4-3; for SI (CC50/EC50): ratio of cytotoxicity (CC50) to antiviral activity (EC50)
Experimental: Briefly, the antiviral activity of PL-100 was determined using MT4 cells infected with a laboratory adapted HIV strain (NL4-3). For comparison, seven approved protease inhibitors (PIs) were tested in parallel.
The effect of 40% human serum on the antiviral activity of PL-100 in MT4 cells infected with NL4-3 was therefore evaluated.

[4] = Study 4: ritonavir administered first, PL-461 15 or 30 minutes later; type: in vivo, Sprague Dawley rats; conditions: test compound 15 or 30 minutes later, compared with the method of studies 1-3
Water solubility = type: physicochemical
[5] = Pharmacokinetics of PL-100 and PL-461 in rats; type: in vivo, Sprague Dawley rats (Rattus norvegicus)
Experimental: Animal tested are Sprague Dawley rats (species Rattus norvegicus) of 6-7 weeks old at the start of dosing and were obtained from Charles River (Montreal, Canada). The study usually comprises about 6 animals per groups. […] The rats were fasted 3 h. before dosing and 3 h. after dosing. The formulations are prepared as indicated below. The solutions are stable at room temperature over a week and are covered with aluminum foil to avoid lights. […] The dosing volume for all formulations is 2 mL per kg body weight. Blood sample was collected at 15 min, 30 min, 45 min, 1 […] after the dosing. Blood samples were centrifuged to separate the plasma and separated plasma samples were placed into cryovials and frozen at -80° C. for further analysis. Plasma samples together with standards and quality control samples were treated by protein precipitation and then analyzed by HPLC-MS. […] The PK profile was obtained by administration of the test drugs; PL-100 and PL-461 in rats. […] The pharmacokinetic parameters of PL-100 and PL-461 in rats** was compared.

[6] = Plasma concentration after single oral dose in rats (in vivo cleavage of the phosphate group); set-up: species or system male Sprague-Dawley rats; conditions: for AUC: 50 mg/Kg po, vehicle PBS, 3 rats, released active ingredient detected (PL-100 for PL-462, PL-337 for PL-515); for Detection of the administered phosphate compound in blood samples: 50 mg/kg po as aqueous solution
Experimental: To assess the extent of in vivo cleavage of the phosphate group from the putative compounds, PL-100, PL-462 (based on PL-100), PL-337 and PL-515 (based on PL-337) compounds were administered po (per os, (i.e., by mouth)) (50 mg/kg) to male Sprague-Dawley rats and their plasma concentration measured at different time intervals post-administration.
All test articles (PL-100, PL-462, PL-337 and PL-515) were prepared in different vehicle at the final concentration of 25 mg/mL. The vehicle composition is as follows: (1) 20% ethanol; 50% propylene glycol; 0.05% w/v Tween 20 and water (Mix); (2) PBS buffer (PBS).
Test articles were administered to male Sprague-Dawley rats at a single oral dose of 50 mg/kg. Each article was tested in three rats. Blood samples (0.2-0.3 mL) were collected at the post-dose time of 10, 20, 40, 60, 120, 180 and 360 minutes. The harvested blood was centrifuged to isolate plasma. The resulting plasma was separated and stored at −70° C.
Plasma samples together with standards and quality control samples were treated to precipitate proteins, then analyzed by HPLC-MS, for the presence of PL-462, PL-100, PL-515 and PL-337.

[7] = sample O3-148709 (non-B subtype), 32I/47A, panel ID 1
[8] = sample O4-148748, 37S/41K/70E, panel ID 115
[9] = sample O4-148749, 37T/41K/70E, panel ID 151
[10] = sample O4-148712, 46I/88S, panel ID 122
[11] = sample O4-148713, 46I/88S, panel ID 123
[12] = sample O3-129578, 46I/82T/84V, panel ID 11

Compound: CC(C)CN(C[C@@H](O)[C@H](Cc1ccccc1)NC(=O)O[C@H]1CCOC1)S(=O)(=O)c1ccc(N)cc1 [Amprenavir]
% FC < 2.5 [1]: 14% | % FC < 10 [1]: 52% | % FC > 50 [1]: 8% | Mean FC [1]: 18.5 | Median FC [1]: 9.7 | CC50 [2]: > 100000 nM | EC50 [3]: 47 nM

Compound: COC(=O)N[C@H](C(=O)N[C@@H](Cc1ccccc1)[C@@H](O)CN(Cc1ccc(-c2ccccn2)cc1)NC(=O)[C@@H](NC(=O)OC)C(C)(C)C)C(C)(C)C [Atazanavir]
% FC < 2.5 [1]: 16% | % FC < 10 [1]: 38% | % FC > 50 [1]: 22% | Mean FC [1]: 25.7 | Median FC [1]: 15.6 | Fold change in IC50 vs. Reference [1, 7]: 1 | Fold change in IC50 vs. Reference [1, 8]: 1.4 | Fold change in IC50 vs. Reference [1, 9]: 1.5 | CC50 [2]: 55000 nM | EC50 [3]: 4 nM | SI (CC50/EC50) [3]: 13,750

Compound: CC(C)(C)NC(=O)[C@@H]1CN(Cc2cccnc2)CCN1C[C@@H](O)C[C@@H](Cc1ccccc1)C(=O)N[C@H]1c2ccccc2C[C@H]1O [Indinavir]
% FC < 2.5 [1]: 13% | % FC < 10 [1]: 54% | % FC > 50 [1]: 5% | Mean FC [1]: 16.5 | Median FC [1]: 8.1 | CC50 [2]: > 100000 nM | EC50 [3]: 67 nM

Compound: Cc1cccc(C)c1OCC(=O)N[C@@H](Cc1ccccc1)[C@@H](O)C[C@H](Cc1ccccc1)NC(=O)[C@H](C(C)C)N1CCCNC1=O [Lopinavir]
% FC < 2.5 [1]: 10% | % FC < 10 [1]: 37% | % FC > 50 [1]: 19% | Mean FC [1]: 31.3 | Median FC [1]: 17.9 | Fold change in IC50 vs. Reference ([1]; sample O3-129586, 30N/88D/90M, panel ID 28): 1.2 | Fold change in IC50 vs. Reference [1, 10]: 1.7 | Fold change in IC50 vs. Reference [1, 11]: 0.7 | Fold change in IC50 vs. Reference [1, 8]: 1 | Fold change in IC50 vs. Reference [1, 9]: 1.3 | CC50 [2]: 28000 nM | EC50 [3]: 19 nM | SI (CC50/EC50) [3]: 1,474

Compound: Cc1c(O)cccc1C(=O)N[C@@H](CSc1ccccc1)[C@H](O)CN1C[C@H]2CCCC[C@H]2C[C@H]1C(=O)NC(C)(C)C [Nelfinavir]
% FC < 2.5 [1]: 10% | % FC < 10 [1]: 27% | % FC > 50 [1]: 10% | Mean FC [1]: 31.7 | Median FC [1]: 15 | Fold change in IC50 vs. Reference [1, 12]: 1.6 | Fold change in IC50 vs. Reference [1, 11]: 4.6 | Fold change in IC50 vs. Reference [1, 8]: 1.6 | Fold change in IC50 vs. Reference [1, 9]: 1.9 | CC50 [2]: 8000 nM | EC50 [3]: 29 nM | SI (CC50/EC50) [3]: 276

Compound: COC(=O)N[C@H](C(=O)NCCCC[C@@H](COP(=O)(O)O)N(CC(C)C)S(=O)(=O)c1ccc(N)cc1)C(c1ccccc1)c1ccccc1 [PL-461, (1S,5S)-(1-{5-[(4-amino-benzenesulfonyl)-isobutyl-amino]-6-phosphonooxy-hexylcarbamoyl}-2,2-diphenyl-ethyl)-carbamic acid methyl ester]
Increase of pharmacokinetics by sequential administration [4]: as efficient at increasing the pharmacokinetics | Fold more water soluble than PL-100 (Water solubility): > 1800 fold | Water solubility (Water solubility; acidic conditions (FIG. 4)): moderate water solubility | Water solubility (Water solubility; pH>4.5 (FIG. 4)): increases dramatically | solubility (Water solubility; water, pH 7.5, aqueous buffer): 145 mg/mL (≈ 206 mM) | Fold improved oral bioavailability over PL-100 ([5]; female, Sprague Dawley, rat, in vivo, po): 2-3 fold | Plasma levels of the Lysine-based compound ([5]; rats, after oral dosing, compared to plasma levels of PL-100): insignificant or under detection limits

Compound: COC(=O)N[C@H](C(=O)NCCCC[C@@H](COP(=O)(O)O)N(CC(C)C)S(=O)(=O)c1ccc(N)cc1)C(c1ccccc1)c1ccccc1.[Na] [PL-462, (1S,5S)-(1-{5-[(4-amino-benzenesulfonyl)-isobutyl-amino]-6-phosphonooxy-hexylcarbamoyl}-2,2-diphenyl-ethyl)-carbamic Acid Methyl Ester Sodium Salt]
AUC [6]: 0.816 ± 0.295 μg/hr * ml | Detection of the administered phosphate compound in blood samples [6]: None of the PL-462 and PL-515 compounds, delivered as aqueous solutions, are detected

AUC [6]: 1.075 ± 0.625 μg/hr * ml
Compound: COC(=O)N[C@H](C(=O)NCCCC[C@@H](COP(=O)(O)O)N(CC(C)C)S(=O)(=O)c1ccc(N)c(F)c1)C(c1ccccc1)c1ccccc1 [PL-515, (1S,5S)-(1-{5-[(4-amino-3-fluoro-benzenesulfonyl)-isobutyl-amino]-6-phosphonooxy-hexylcarbamoyl}-2,2-diphenyl-ethyl)-carbamic acid methyl ester]
Detection of the administered phosphate compound in blood samples [6]: None of the PL-462 and PL-515 compounds, delivered as aqueous solutions, are detected

Compound: CC(C)c1nc(CN(C)C(=O)N[C@H](C(=O)N[C@@H](Cc2ccccc2)C[C@H](O)[C@H](Cc2ccccc2)NC(=O)OCc2cncs2)C(C)C)cs1 [Ritonavir, ritonavir]
EC50 [3]: 61 nM

Compound: CC(C)(C)NC(=O)[C@@H]1C[C@@H]2CCCC[C@@H]2CN1C[C@@H](O)[C@H](Cc1ccccc1)NC(=O)[C@H](CC(N)=O)NC(=O)c1ccc2ccccc2n1 [Saquinavir]
% FC < 2.5 [1]: 27% | % FC < 10 [1]: 40% | % FC > 50 [1]: 37% | Mean FC [1]: 85 | Median FC [1]: 23.2 | Fold change in IC50 vs. Reference ([1]; sample O3-129573, 24I/33F/46I/54L/82A, panel ID 3): 1.5 | Fold change in IC50 vs. Reference [1, 12]: 1 | Fold change in IC50 vs. Reference ([1]; sample O3-129584, 33F/50V, panel ID 24): 1.7 | Fold change in IC50 vs. Reference [1, 7]: 0.2 | Fold change in IC50 vs. Reference ([1]; sample O4-148711, 46I/47A/84V, panel ID 119): 1.1 | Fold change in IC50 vs. Reference [1, 10]: 1.9 | Fold change in IC50 vs. Reference ([1]; sample O4-148712, 46I/88S, panel ID 124): 2 | Fold change in IC50 vs. Reference [1, 11]: 0.6 | Fold change in IC50 vs. Reference ([1]; sample O4-148721, 32I/46I/47V/50L, panel ID 127): 0.5 | Fold change in IC50 vs. Reference ([1]; sample O4-148725, 32I/46L/47V/84V, panel ID 53): 0.8 | Fold change in IC50 vs. Reference ([1]; sample O4-148745, 46I/50L/54V/82A, panel ID 99): 2.2 | Fold change in IC50 vs. Reference [1, 8]: 1.2 | Fold change in IC50 vs. Reference [1, 9]: 1.2 | CC50 [2]: 19000 nM | EC50 [3]: 12 nM | SI (CC50/EC50) [3]: 1,583
